For one data set, the target named is T1, GGT (Homo sapiens, UniProt P19440).
T1 construct: purchased wako 307-50673
In words: Enzymatic reaction between gGlu-4^125I-FMA and GGT, HPLC with radiation detector. In kind it is biochemical. The conditions noted are these: 80 U/mL GGT, 37° C., 3.5 hours, radio-HPLC. Here is the method: The purified gGlu-4^125I-FMA was dissolved in DPBS(-) to prepare about 5 kBq/μL. The result of the radiation detector when 20 μL of DPBS(-) was added to 5 μL of this solution and the entire amount of 25 μL was injected into the analytical HPLC is shown in the upper left of FIG. 3. Here, the analysis conditions of HPLC are exactly the same as the conditions at the time of purification in FIG. 2.
For analysis of metabolites, 40 μL of a 100 U/mL GGT solution (final concentration: 80 U/mL) was added to 10 μL of the above gGlu-4^125I-FMA solution, and the mixture was stirred at 37° C. and 500 rpm for 3.5 hours using a shaker. The result of the radiation detector when a half amount 25 μL from this reaction liquid was injected for analysis is shown in the upper left of FIG. 3. The lower right is a result of extracting 254 nm with PDA when a cold preparation of 2-amino-5-iodobenzylalcohol obtained by producing azaquinone methide after gGlu-4^125I-FMA was metabolized by GGT, and reacting azaquinone methide with water that would be the main nucleophile in this enzymatic reaction experiment was analyzed under the same analysis conditions.

Data set [1] relates to SHIN3 (high GGT activity) cells. Description: Intracellular uptake test in cells with high GGT activity, with or without GGT inhibitor GGsTop. Format: cell-based. Here is the method: (§1) Intracellular uptake of gGlu-4^125I-FMA was evaluated using cells with high or low GGT activity and a GGT inhibitor, GGsTop, by the procedure shown in FIG. 4.
(§2) First, SHIN3 (high GGT activity) and SKOV3 (low GGT activity) cells were seeded in 12 well culture plates and incubated for 1 day. Next, the medium of each well was changed to fresh medium containing gGlu-4^125I-FMA (and GGsTop), and the cells were incubated for 6 hours. Thereafter, the medium was removed and the plates were washed three times with PBS(-). Then, the cells were collected, radioactivity from the cells was measured with a Y-counter, and the number of cells was counted.
(§3) Since there was almost no radioactivity in the third wash fraction and the radioactivity from the cell fraction was much higher than that, it is considered that the radioactivity from the cell fraction is derived from the nuclide retained in the cell.

Data set [2] concerns SKOV3 (low GGT activity) cells. Description: Intracellular uptake test in cells with low GGT activity. The conditions noted are these: SKOV3, 6 hours incubation, gamma counter. In kind it is cell-based. Here is the method:
as §1, §2, §3

The test system of data set [3] is A549 tumor (high GGT activity). Description: Intratumoral administration to subcutaneous tumor model mouse, SPECT/CT imaging (high GGT tumor). The following applies: about 150 kBq intratumoral, images 30 minutes, 2 hours, 5 hours. Format: in vivo. The protocol:
(§4) On the basis of the results of Example 2, a probe was intratumorally administered to a subcutaneous tumor model mouse, and SPECT/CT imaging was performed.
(§5) A model mouse was prepared in which A549 cells with high GGT activity were transplanted subcutaneously on the left side of the body, and H226 cells with low GGT activity were transplanted subcutaneously on the right side of the body. Into subcutaneous tumors of A549 (high GGT activity, left side) and H226 (low GGT activity, right side), gGlu-4^125I-FMA of about 150 kBq in 30 μL PBS(-) was directly administered. SPECT/CT images were acquired 30 minutes, 2 hours, and 5 hours after administration.

Data set [4] has as its system H226 tumor (low GGT activity). Description: Intratumoral administration to subcutaneous tumor model mouse, SPECT/CT imaging (low GGT tumor). In kind it is in vivo. The following applies: about 150 kBq intratumoral, images 30 minutes, 2 hours, 5 hours. Here is the method: as §4, §5
For data set [5], the system named is A549-luc-C8 cells with high GGT activity (peritoneal dissemination). In words: Visualization of peritoneal metastasis by intraperitoneal administration, SPECT/CT and autoradiography. Format: in vivo, mouse. The conditions noted are these: for signals in the abdomen (SPECT/CT): 5 hours after administration. Here is the method: Next, according to the procedure shown in the left figure of FIG. 7, peritoneal dissemination model mice were prepared, and gGlu-4^125I-FMA was intraperitoneally administered. First, A549-luc-C8 cells with high GGT activity were transplanted into the abdominal cavity of the mouse and bred for 1 week. Luciferin potassium was intraperitoneally administered, and tumor growth was confirmed by luminescence imaging using IVIS (right figure in FIG. 7). Next, gGlu-4^125I-FMA was intraperitoneally administered (to 3 MBq) to the peritoneal model mouse and a tumor-free mouse, and SPECT/CT imaging was performed by NanoSPECT/CT. […] They are shown as Maximum Intensity Projection (MIP) images.
In addition, the peritoneal dissemination model mouse in the left figure was dissected after 5 hours of imaging, and the intestines and mesentery were taken out and imaged by autoradiography (ARG) (FIG. 9). […] From this, it is considered that the signals scattered in the abdominal cavity in the SPECT/CT on the left of FIG. 8 correspond to the peritoneal dissemination.

The results in this text go back to patent publication US20250152758A1, “PROBE FOR NUCLEAR MEDICAL TESTING” (The University of Tokyo, priority 2022, published 2025).

The structures appear in SMILES notation.

T1 sequence (P19440 whole entry, species assumed): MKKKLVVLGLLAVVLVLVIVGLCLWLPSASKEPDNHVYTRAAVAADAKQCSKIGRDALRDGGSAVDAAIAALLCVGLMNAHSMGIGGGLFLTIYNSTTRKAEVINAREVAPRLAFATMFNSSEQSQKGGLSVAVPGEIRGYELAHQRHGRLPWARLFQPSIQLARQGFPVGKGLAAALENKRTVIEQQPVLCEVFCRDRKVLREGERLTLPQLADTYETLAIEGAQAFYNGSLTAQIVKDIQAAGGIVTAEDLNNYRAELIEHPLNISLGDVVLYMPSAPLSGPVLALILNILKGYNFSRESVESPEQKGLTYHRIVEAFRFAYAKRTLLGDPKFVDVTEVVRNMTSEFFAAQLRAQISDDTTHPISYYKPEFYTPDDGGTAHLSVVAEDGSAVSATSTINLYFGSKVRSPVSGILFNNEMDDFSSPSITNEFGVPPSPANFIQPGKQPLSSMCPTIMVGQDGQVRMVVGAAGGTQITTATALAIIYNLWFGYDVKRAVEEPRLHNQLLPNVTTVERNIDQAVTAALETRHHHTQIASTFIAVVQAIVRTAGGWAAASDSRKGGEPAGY

On to `N[C@@H](CCC(=O)Nc1ccc([125I])cc1CF)C(=O)O` [gGlu-4^125I-FMA], for which the “metabolite formed on reaction with GGT” value at GGT was “converted to 2-amino-5-iodobenzylalcohol”. Further, in data set [1] (SHIN3, 6 hours incubation, GGsTop as inhibitor, gamma counter, standardized by number of cells), the “uptake rate without inhibitor compared with the case of adding an inhibitor” value is on record as “about 30 times”. Moreover, the “retention of incorporated probe in the cell after wash operation” value in data set [1] (three washes with PBS(-)) was “remains in the cell at a certain ratio and withstands washout”. Moreover, in data set [2], the uptake rate result is “suppressed to be low”. Also, the “radioactivity in tumor (SPECT/CT)” value in data set [3] was “clearly remains”; in data set [4], “rapidly attenuated”. The “clearance of probe from abdominal cavity (SPECT/CT)” value in data set [5] (i.p., after 30 minutes) was “almost disappeared from the abdominal cavity”. For the same compound, the “signals in the bladder (SPECT/CT)” value in data set [5] (i.p., after 30 minutes) is “many signals gathered in the bladder”. Further, the “uptake in intestines and mesentery by autoradiography (ARG)” value in data set [5] (peritoneal dissemination model mouse dissected after 5 hours of imaging) was “uptake of radionuclides was observed in agreement with minute peritoneal dissemination”. Moreover, the “signals in the abdomen (SPECT/CT)” value was “only scattered signals remained in the abdomen” in data set [5] (peritoneal dissemination model mouse, i.p.) and “not observed” in data set [5] (tumor-free mouse, i.p.).
